In patent publication US20220071971A1, “MACROCYCLIC COMPOUNDS AND THEIR USE IN THE TREATMENT OF DISEASE” (NOVARTIS AG, priority 2018, published 2022):

Biological target: T1, delF508-CFTR (Homo sapiens, UniProt P13569, DEL508-508)
T1 construct: expressed in transfected cells
Test: Measurement of delF508-CFTR-HRP surface expression in CFBE41o- cells
Type: cell-based
Details: for Emax: CFBE41o-, efficacy relative to reference compound 3-(6-(1-(2,2-difluorobenzo[d][1,3]dioxol-5-yl)cyclopropane-1-carboxamido)-3-methylpyridin-2-yl)benzoic acid, read-out: DelF508-CFTR-HRP Amax %; for EC50: HRP-tagged delF508-CFTR surface expression, CFBE41o- cells, 24 h with compound, 10-point curve, highest concentration 10 μM
Description: Measurement of deIF508-CFTR-HRP Surface Expression in CFBE41o-Cells
This assay quantifies the cell surface expressions of the mutant CFTR channel using an extracellular HRP tag.
A cellular assay was developed to measure surface expression of horseradish peroxidase (HRP) tagged delF508-CFTR in the human bronchial epithelial immortalized CFBE41o-cell line (Phuan, P. W., et al, (2014) Molecular Pharmacology 86:42-51). Specifically, the HRP sequence was inserted into the fourth extracellular loop of delF508-CFTR and stably expressed in CFBE41o-cells. Cells were seeded in 384 well plate at a density of 5000 cells/well and incubated at 37° C. for 12 to 24 hours in medium (Gibco MEM #11095, 10% FBS, 10 mM HEPES, […], 200 μg/mL G418, 3 μg/mL Puromycin). The delF508-CFTR-HRP expression was induced with 500 ng/mL doxycycline (Sigma D-9891, dissolved in H2O and sterile filtered) in medium and the cells were incubated at 37° C. for 48 h. Old medium was removed and fresh medium was added containing 500 ng/mL doxycycline and unknown test compound at required test concentration in DMSO, not exceeding 0.5% final DMSO concentration. The highest concentration tested was 10 μM with a 10-point concentration response curve using a 3-fold dilution. After addition of compounds, the cells were incubated for 24 h at 37° C. On the final day, cells were washed four times in PBS containing 1 mM MgCl2 and 0.1 mM CaCl2. HRP-Substrate (SuperSignal ELISA Pico, Fisher #37069) 20 μl/well was added and the luminescence signal was determined (Viewlux, Perkin Elmer). Light was emitted upon addition of exogenous HRP-Substrate only when delF508-CFTR-HRP reached the cell surface and the HRP tag was accessible to the HRP-Substrate (note: HRP-Substrate cannot cross the lipid bilayer to reach delF508-CFTR-HRP misfolded within the cell).
The median activity for the lowest concentration of the compounds on each assay plate was calculated and this value was used to normalize the signal for each well on the respective plate. Three replicates at each concentrations for every compound were run to determine one EC50. The median value was determined and used to calculate compound activities as described below. Effective half maximal values (EC50) were calculated for each compound by performing logistic regression on measured dose-response data points using the equation: […]
where “Y” is the observed activity, “Bottom” is the lowest observed value, “Top” is the highest observed value, and the “Hill coefficient” gives the largest absolute value of the slope. The curve fitting is carried out by a curve fitting program implemented at GNF using Matlab (Mathworks).
The dose response curves also were used to calculate Fold Change (FC) using the equation: […]
Compound efficacy relative to the reference compound 3-(6-(1-(2,2-difluorobenzo[d][1,3]dioxol-5-yl)cyclopropane-1-carboxamido)-3-methylpyridin-2-yl)benzoic acid was determined using the following formula: […]

T1 sequence (P13569 with tags, fused parts or gaps DEL508-508): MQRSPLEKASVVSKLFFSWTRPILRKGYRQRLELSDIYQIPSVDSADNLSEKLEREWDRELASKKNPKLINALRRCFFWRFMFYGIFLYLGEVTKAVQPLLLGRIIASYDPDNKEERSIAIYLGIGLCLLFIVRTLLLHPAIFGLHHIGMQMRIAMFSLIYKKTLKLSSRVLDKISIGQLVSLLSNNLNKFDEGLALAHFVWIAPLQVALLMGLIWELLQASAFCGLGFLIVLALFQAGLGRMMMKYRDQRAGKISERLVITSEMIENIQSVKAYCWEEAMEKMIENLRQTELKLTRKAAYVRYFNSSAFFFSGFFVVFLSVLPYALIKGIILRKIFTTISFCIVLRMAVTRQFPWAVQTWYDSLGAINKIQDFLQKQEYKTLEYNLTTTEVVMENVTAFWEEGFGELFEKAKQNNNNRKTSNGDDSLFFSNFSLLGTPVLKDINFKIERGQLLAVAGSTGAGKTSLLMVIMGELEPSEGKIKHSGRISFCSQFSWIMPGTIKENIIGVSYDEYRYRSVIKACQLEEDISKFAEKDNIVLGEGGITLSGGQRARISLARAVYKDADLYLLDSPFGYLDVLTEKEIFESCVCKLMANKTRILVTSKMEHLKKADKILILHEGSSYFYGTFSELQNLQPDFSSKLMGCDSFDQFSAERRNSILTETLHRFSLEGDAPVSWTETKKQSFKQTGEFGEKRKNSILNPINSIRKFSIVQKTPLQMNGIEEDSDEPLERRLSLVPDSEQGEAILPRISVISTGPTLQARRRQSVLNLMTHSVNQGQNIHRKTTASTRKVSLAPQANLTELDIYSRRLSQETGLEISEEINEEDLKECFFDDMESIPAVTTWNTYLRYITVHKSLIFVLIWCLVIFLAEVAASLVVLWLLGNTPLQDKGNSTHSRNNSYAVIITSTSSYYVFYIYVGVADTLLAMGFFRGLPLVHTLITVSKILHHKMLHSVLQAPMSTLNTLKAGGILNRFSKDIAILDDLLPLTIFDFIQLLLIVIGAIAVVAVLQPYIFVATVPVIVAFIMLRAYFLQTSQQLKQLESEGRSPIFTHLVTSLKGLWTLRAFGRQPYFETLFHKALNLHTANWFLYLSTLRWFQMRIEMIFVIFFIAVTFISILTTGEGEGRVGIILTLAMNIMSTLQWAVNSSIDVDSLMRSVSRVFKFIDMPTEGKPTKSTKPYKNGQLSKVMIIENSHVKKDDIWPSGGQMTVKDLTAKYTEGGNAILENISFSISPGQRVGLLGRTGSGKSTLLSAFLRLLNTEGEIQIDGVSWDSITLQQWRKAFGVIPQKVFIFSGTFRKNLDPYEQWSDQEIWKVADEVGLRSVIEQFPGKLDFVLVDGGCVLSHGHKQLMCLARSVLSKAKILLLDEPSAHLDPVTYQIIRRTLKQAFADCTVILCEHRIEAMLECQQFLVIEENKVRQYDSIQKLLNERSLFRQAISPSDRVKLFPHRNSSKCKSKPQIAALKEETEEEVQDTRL

Row | Emax [%] | EC50 [nM] | Structure (SMILES)
1 | 396 | 2430 | Cc1ccc2nc1-c1ccccc1CCCCCN(CCCC(=O)O)c1cccc(n1)S(=O)(=O)N2 [Compound 72, 4-(2^3-methyl-4,4-dioxido-4-thia-3,6-diaza-2,5(2,6)-dipyridina-1(1,2)-benzenacycloundecaphane-6-yl)butanoic acid]
2 | 361 | 335 | CCOC(=O)CN1CCCCOc2ccccc2-c2nc(ccc2C(F)(F)F)NS(=O)(=O)c2cccc1n2 [Compound 3, ethyl 2-(4,4-dioxido-2^3-(trifluoromethyl)-11-oxa-4-thia-3,6-diaza-2,5(2,6)-dipyridina-1(1,2)-benzenacycloundecaphane-6-yl)acetate]
3 | 527 | 2330 | O=C(O)CCN1CCCCOc2ccc(F)cc2-c2nc(ccc2C(F)(F)F)NS(=O)(=O)c2cccc1n2 [Compound 81, 3-(1^5-fluoro-4,4-dioxido-2^3-(trifluoromethyl)-11-oxa-4-thia-3,6-diaza-2,5(2,6)-dipyridina-1(1,2)-benzenacycloundecaphane-6-yl)propanoic acid]
4 |  | 84 | O=C(O)CCCCN1CCCCCCCc2ccccc2-c2nc(ccc2C(F)(F)F)NS(=O)(=O)c2cccc1n2 [Compound 101, 5-(4,4-dioxido-2^3-(trifluoromethyl)-4-thia-3,6-diaza-2,5(2,6)-dipyridina-1(1,2)-benzenacyclotridecaphane-6-yl)pentanoic acid]
5 | 664 | 2150 | O=S1(=O)Nc2ccc(Cl)c(n2)-c2ccccc2CCCCCOc2cccc1n2 [Compound 113, 2^3-chloro-6-oxa-4-thia-3-aza-2,5(2,6)-dipyridina-1(1,2)-benzenacycloundecaphane 4,4-dioxide]
6 | 97.1 | 3310 | O=S1(=O)Nc2ccc(Cl)c(n2)-c2ccccc2CCCOc2cccc1n2 [Compound 114, 2^3-chloro-6-oxa-4-thia-3-aza-2,5(2,6)-dipyridina-1(1,2)-benzenacyclononaphane 4,4-dioxide]
7 | 610 | 606 | O=S1(=O)Nc2ccc(C(F)(F)F)c(n2)-c2ccccc2OCCCCN(CCO)c2cccc1n2 [Compound 2, 6-(2-hydroxyethyl)-2^3-(trifluoromethyl)-11-oxa-4-thia-3,6-diaza-2,5(2,6)-dipyridina-1(1,2)-benzenacycloundecaphane 4,4-dioxide]
8 | 728 | 747 | O=C(O)CCN1CCCCCc2ccc(F)cc2-c2nc(ccc2C(F)(F)F)NS(=O)(=O)c2cccc1n2 [Compound 97, 3-(1^5-fluoro-4,4-dioxido-2^3-(trifluoromethyl)-4-thia-3,6-diaza-2,5(2,6)-dipyridina-1(1,2)-benzenacycloundecaphane-6-yl)propanoic acid]
9 |  | 219 | O=S1(=O)Nc2ccc(C(F)(F)F)c(n2)-c2ccccc2CCCCCCCCCN(CCCCO)c2cccc1n2 [Compound 42, 6-(4-hydroxybutyl)-2^3-(trifluoromethyl)-4-thia-3,6-diaza-2,5(2,6)-dipyridina-1(1,2)-benzenacyclopentadecaphane 4,4-dioxide]
10 |  | 233 | O=S1(=O)Nc2ccc(C(F)(F)F)c(n2)-c2ccccc2CCCCCCCN(CCCO)c2cccc1n2 [Compound 39, 6-(3-hydroxypropyl)-2^3-(trifluoromethyl)-4-thia-3,6-diaza-2,5(2,6)-dipyridina-1(1,2)-benzenacyclotridecaphane 4,4-dioxide]
11 |  | 418 | O=C(O)CCCN1CCCCCCc2ccc(F)cc2-c2nc(ccc2C(F)(F)F)NS(=O)(=O)c2cccc1n2 [Compound 68, 4-(1^5-fluoro-4,4-dioxido-2^3-(trifluoromethyl)-4-thia-3,6-diaza-2,5(2,6)-dipyridina-1(1,2)-benzenacyclododecaphane-6-yl)butanoic acid]
12 |  | 608 | O=C(O)CCCN1CCCCCc2ccccc2-c2nc(ccc2C(F)(F)F)NS(=O)(=O)c2cccc1n2 [Compound 67, 4-(4,4-dioxido-2^3-(trifluoromethyl)-4-thia-3,6-diaza-2,5(2,6)-dipyridina-1(1,2)-benzenacycloundecaphane-6-yl)butanoic acid]
13 | 337 | 360 | O=S1(=O)Nc2ccc(C(F)(F)F)c(n2)-c2ccccc2CCCCN(CCCO)c2cccc1n2 [Compound 20, 6-(3-hydroxypropyl)-2^3-(trifluoromethyl)-4-thia-3,6-diaza-2,5(2,6)-dipyridina-1(1,2)-benzenacyclodecaphane 4,4-dioxide]
14 |  | 368 | COC(=O)CN1CCCCCCc2ccccc2-c2nc(ccc2C(F)(F)F)NS(=O)(=O)c2cccc1n2 [Compound 61, methyl 2-(4,4-dioxido-2^3-(trifluoromethyl)-4-thia-3,6-diaza-2,5(2,6)-dipyridina-1(1,2)-benzenacyclododecaphane-6-yl)acetate]
15 | 932 | 267 | O=S1(=O)Nc2ccc(C(F)(F)F)c(n2)-c2ccccc2CCCCCN(CCCCO)c2cccc1n2 [Compound 25, 6-(4-hydroxybutyl)-2^3-(trifluoromethyl)-4-thia-3,6-diaza-2,5(2,6)-dipyridina-1(1,2)-benzenacycloundecaphane 4,4-dioxide]
16 | 489 | 334 | O=S1(=O)Nc2ccc(C(F)(F)F)c(n2)-c2ccccc2CCCCCN(CCOCCCO)c2cccc1n2 [Compound 14, 6-(2-(3-hydroxypropoxy)ethyl)-2^3-(trifluoromethyl)-4-thia-3,6-diaza-2,5(2,6)-dipyridina-1(1,2)-benzenacycloundecaphane 4,4-dioxide]
17 | 448 | 165 | O=S1(=O)Nc2ccc(Cl)c(n2)-c2ccccc2CCCCCN(CCCO)c2cccc1n2 [Compound 24, 2^3-chloro-6-(3-hydroxypropyl)-4-thia-3,6-diaza-2,5(2,6)-dipyridina-1(1,2)-benzenacycloundecaphane 4,4-dioxide]
18 |  | 421 | O=C(O)CCCN1CCCCCCc2ccccc2-c2nc(ccc2C(F)(F)F)NS(=O)(=O)c2cccc1n2 [Compound 76, 4-(4,4-dioxido-2^3-(trifluoromethyl)-4-thia-3,6-diaza-2,5(2,6)-dipyridina-1(1,2)-benzenacyclododecaphane-6-yl)butanoic acid]
19 |  | 403 | O=C(O)CCN1CCCCCCCc2ccccc2-c2nc(ccc2C(F)(F)F)NS(=O)(=O)c2cccc1n2 [Compound 62, 3-(4,4-dioxido-2^3-(trifluoromethyl)-4-thia-3,6-diaza-2,5(2,6)-dipyridina-1(1,2)-benzenacyclotridecaphane-6-yl)propanoic acid]
20 | 644 | 2600 | O=S1(=O)Nc2ccc(Cl)c(n2)-c2ccccc2CCCCOc2cccc1n2 [Compound 112, 2^3-chloro-6-oxa-4-thia-3-aza-2,5(2,6)-dipyridina-1(1,2)-benzenacyclodecaphane 4,4-dioxide]
21 | 708 | 304 | O=S1(=O)Nc2ccc(C(F)(F)F)c(n2)-c2ccccc2CCCCCN(CCCCCO)c2cccc1n2 [Compound 15, 6-(5-hydroxypentyl)-2^3-(trifluoromethyl)-4-thia-3,6-diaza-2,5(2,6)-dipyridina-1(1,2)-benzenacycloundecaphane 4,4-dioxide]
22 | 737 | 445 | O=S1(=O)Nc2ccc(C(F)(F)F)c(n2)-c2ccccc2CCCCN(CCO)c2cccc1n2 [Compound 116, 6-(2-hydroxyethyl)-2^3-(trifluoromethyl)-4-thia-3,6-diaza-2,5(2,6)-dipyridina-1(1,2)-benzenacyclodecaphane 4,4-dioxide]
